Laboratory results reported in patent EP0293294A2, “Imidazo[1,2-a]pyrimidines and their salts, process and intermediates for their preparation, their use as medicaments and compositions containing them” (ROUSSEL-UCLAF, priority 1987, dated 1988).
pIC50: −log10 of the molar value.

Molecular target: récepteurs des benzodiazépines
Test: Benzodiazepine receptor binding, [³H] flunitrazépam displacement (modified Squires and Braestrup method)
Set-up: species or system rats
Details: concentration inhibiting by 50% the specific binding of 0,6 nanomoles of [³H] flunitrazépam; rat forebrain membrane preparations; read-out: Liaison aux récepteurs CI50
Text: L'affinité des composés pour les récepteurs des benzodiazépines a été évaluée en utilisant un radioligang [³H] flunitrazépam et la méthode de Squires et Braestrup (Nature, 1977, 266, 732) modifiée.
Les valeurs indiquées dans le tableau II ci-après sont les concentrations nanomolaires du produit testé qui inhibent dans une proportion de 50% la liaison spécifique de 0,6 nanomoles de [³H] flunitrazépam dans des préparations de membranes de cerveaux antérieurs de rats [(CI₅₀)en nanomoles].

SMILES	pIC50
CCOC(=O)[C@@H]1C[C@H]1C(=O)c1cn2c(C)c(CC)c(OC)nc2n1 (relative stereo) [Exemple 1, trans 2-(6-éthyl 7-méthoxy 5-méthylimidazo [1,2-a]pyrimidin-2-oyl) cyclopropane carboxylate d'éthyle]	6.25
COc1nc2nc(C(=O)[C@@H]3C[C@H]3Cl)cn2c2c1CCCC2 (relative stereo) [Exemple 6, trans (6,7,8,9-tétrahydro 5-méthoxyimidazo [1,2 a]quinazolin--yl) 2-chlorocyclopropyl méthanone]	6.74
COc1nc2nc(C(=O)C3(C)CC3)cn2c2c1CCCC2 [Exemple 4, (6,7,8,9-tétrahydro 5-méthoxyimidazo [1,2-a]quinazolin-2-yl) 1-méthyl cyclopropyl méthanone]	5.20
CCc1c(OC)nc2nc(C(=O)[C@@H]3C[C@H]3C)cn2c1C (relative stereo) [Exemple 5, trans (6-éthyl 7-méthoxy 5-méthylimidazo [1,2-a]pyrimidin-2-yl) 2-méthyl cyclopropyl méthanone]	5.75
COc1nc2nc(C(=O)[C@@H]3C[C@H]3C#N)cn2c2c1CCCC2 (relative stereo) [Exemple 11, trans 2-(6,7,8,9-tétrahydro 5-méthoxyimidazo [1,2-a]quinazolin-2-oyl) cyclopropane carbonitrile]	6.00
